Measurements from patent publication US5556744A, “Methods and compositions for diagnosing and treating certain HIV infected patients” (The Trustees of the University of Pennsylvania, priority 1994, dated 1996).

How the values were obtained:
[1] = tested on: maternal sera (antibodies); test: ELISA peptide-binding of maternal sera (Example 6); set-up: species or system human
Method in brief: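 HIV-1 envelope peptides averaging 16 amino acids, covering external and transmembrane glycoprotein, were probed by ELISA. Third-trimester maternal sera, classed as transmitter or non-transmitter by child diagnosis, were each run on at least 40 peptides. Values give percent of sera binding a peptide.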

[2] = tested on: maternal HIV+ sera (antibodies); test: RIA / ELISA binding of maternal HIV+ sera to gp120 and gp41 peptides (Example 3); set-up: species or system human
Method in brief: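 Maternal sera, diluted 1:50 and 1:500, were bound overnight at 4°C to peptides immobilized at 10 μg/ml (pH 9.6 carbonate) and blocked with 1% BSA. Read-out was ¹²⁵I-labelled anti-human IgG counts or HRP-TMB OD450. Signal with peptide minus without was expressed relative to seronegative serum.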

[3] = tested on: HIV-1 infected cells (MN isolate); test: Anti-syncytial assay (inhibition of HIV-1 MN syncytium formation, SupT1 target cells); type: cell-based
Source text: The H9 cell line (a cutaneous T lymphoma line) infected by HIV-IIIB [ATCC CRL 8543] was used in the neutralization assay. The H9 cell line infected by HIV-MN was used in the anti-syncytial assays. SupT1 and Hut78 cells were used as the target cell lines for the anti-syncytial and neutralization assays. All cell lines were obtained from the National Institutes of Health AIDS Repository (Bethesda, Md.).
To analyze the effect of the maternal serum samples on HIV-1 fusion, SupT1 cells were used as target cells in an anti-syncytial assay. Dilutions of the different maternal serum samples were made in 96 well plates in RPMI 1640 media containing 10% fetal calf serum at final dilutions of 1:4, 1:8, 1:16, 1:32, 1:64, 1:128, 1:256 or 1:512. HIV-1 infected cells (MN isolate) were then plated in the wells at a density of approximately 10^4 cells per well. SupT1 target cells were then added at 5×10^5 /well and the number of syncytia are determined after 3 days of incubation. Inhibition of syncytium formation by a serum sample was considered significant if the dilution which yielded a 50% reduction in the number of syncytia when compared to control was greater than 1:32. The average number of syncytia in the control (normal human serum) wells at the above dilutions were: 45.5, 48.5, 44, 48, 48.5, 41.5, 42 and 45.5 respectively.

HIV-1 = details: cited from earlier work

Sequence: CFRPGGGDMRDNWREL [Peptide 466]
- Number of Non-Transmitters which bound to peptide ([1]; Non-Transmitters, N = 12): 0
- Percent of Non-Transmitters which bound to peptide ([1]; Non-Transmitters, N = 12): 0%
- Number of Transmitters which bound to peptide ([1]; Transmitters, N = 4): 0
- Percent of Transmitters which bound to peptide ([1]; Transmitters, N = 4): 0%
- Number of maternal sera binding to peptide ([2]; 20 maternal sera): three
- Binding of maternal sera to peptide (in words) ([2]; Example 3): very strong binding
- Binding of maternal HIV+ serum to peptide (sera/NHS ratio) ([2]; Serum No. 1, Non-Transmission Group): - (specific OD450 or cpm of sera sample binding to peptide divided by the specific OD450 or cpm of NHS sample binding to peptide, which value is less than 2)
- Binding of maternal HIV+ serum to peptide (sera/NHS ratio) ([2]; Serum No. 2, Non-Transmission Group): - (specific OD450 or cpm of sera sample binding to peptide divided by the specific OD450 or cpm of NHS sample binding to peptide, which value is less than 2)
- Binding of maternal HIV+ serum to peptide (sera/NHS ratio) ([2]; Serum No. 3, Non-Transmission Group): - (specific OD450 or cpm of sera sample binding to peptide divided by the specific OD450 or cpm of NHS sample binding to peptide, which value is less than 2)
- Binding of maternal HIV+ serum to peptide (sera/NHS ratio) ([2]; Serum No. 4, Transmission Group): - (specific OD450 or cpm of sera sample binding to peptide divided by the specific OD450 or cpm of NHS sample binding to peptide, which value is less than 2)
- Binding of maternal HIV+ serum to peptide (sera/NHS ratio) ([2]; Serum No. 5, Transmission Group): - (specific OD450 or cpm of sera sample binding to peptide divided by the specific OD450 or cpm of NHS sample binding to peptide, which value is less than 2)
- Binding of maternal HIV+ serum to peptide (sera/NHS ratio) ([2]; Serum No. 6, Non-Transmission Group): + (which value is between 2 to 3)
- Binding of maternal HIV+ serum to peptide (sera/NHS ratio) ([2]; Serum No. 7, Non-Transmission Group): - (specific OD450 or cpm of sera sample binding to peptide divided by the specific OD450 or cpm of NHS sample binding to peptide, which value is less than 2)
- Binding of maternal HIV+ serum to peptide (sera/NHS ratio) ([2]; Serum No. 8, Non-Transmission Group): - (specific OD450 or cpm of sera sample binding to peptide divided by the specific OD450 or cpm of NHS sample binding to peptide, which value is less than 2)
- Binding of maternal HIV+ serum to peptide (sera/NHS ratio) ([2]; Serum No. 9, Non-Transmission Group): ++ (which value is greater than 3)
- Binding of maternal HIV+ serum to peptide (sera/NHS ratio) ([2]; Serum No. 10, Transmission Group): - (specific OD450 or cpm of sera sample binding to peptide divided by the specific OD450 or cpm of NHS sample binding to peptide, which value is less than 2)
- Binding of maternal HIV+ serum to peptide (sera/NHS ratio) ([2]; Serum No. 11, Non-Transmission Group): - (specific OD450 or cpm of sera sample binding to peptide divided by the specific OD450 or cpm of NHS sample binding to peptide, which value is less than 2)
- Binding of maternal HIV+ serum to peptide (sera/NHS ratio) ([2]; Serum No. 12, Non-Transmission Group): - (specific OD450 or cpm of sera sample binding to peptide divided by the specific OD450 or cpm of NHS sample binding to peptide, which value is less than 2)
- Binding of maternal HIV+ serum to peptide (sera/NHS ratio) ([2]; Serum No. 13, Transmission Group): - (specific OD450 or cpm of sera sample binding to peptide divided by the specific OD450 or cpm of NHS sample binding to peptide, which value is less than 2)
- Binding of maternal HIV+ serum to peptide (sera/NHS ratio) ([2]; Serum No. 14, Transmission Group): - (specific OD450 or cpm of sera sample binding to peptide divided by the specific OD450 or cpm of NHS sample binding to peptide, which value is less than 2)
- Binding of maternal HIV+ serum to peptide (sera/NHS ratio) ([2]; Serum No. 15, Transmission Group): - (specific OD450 or cpm of sera sample binding to peptide divided by the specific OD450 or cpm of NHS sample binding to peptide, which value is less than 2)
- Binding of maternal HIV+ serum to peptide (sera/NHS ratio) ([2]; Serum No. 16, Non-Transmission Group): - (specific OD450 or cpm of sera sample binding to peptide divided by the specific OD450 or cpm of NHS sample binding to peptide, which value is less than 2)
- Binding of maternal HIV+ serum to peptide (sera/NHS ratio) ([2]; Serum No. 17, Non-Transmission Group): - (specific OD450 or cpm of sera sample binding to peptide divided by the specific OD450 or cpm of NHS sample binding to peptide, which value is less than 2)
- Binding of maternal HIV+ serum to peptide (sera/NHS ratio) ([2]; Serum No. 18, Non-Transmission Group): + (which value is between 2 to 3)
- Binding of maternal HIV+ serum to peptide (sera/NHS ratio) ([2]; Serum No. 19, Transmission Group): - (specific OD450 or cpm of sera sample binding to peptide divided by the specific OD450 or cpm of NHS sample binding to peptide, which value is less than 2)
- Binding of maternal HIV+ serum to peptide (sera/NHS ratio) ([2]; Serum No. 20, Non-Transmission Group): - (specific OD450 or cpm of sera sample binding to peptide divided by the specific OD450 or cpm of NHS sample binding to peptide, which value is less than 2)
- Percent of the maternal serum samples that bound to the peptide ([2]; all 20 samples): 15%
- Number of binding maternal sera from the non-transmission group ([2]; non-transmission group (13 sera)): three
- Number of binding maternal sera from the transmission group ([2]; vertical transmission group (7 sera)): Zero
- Antisyncytial activity of non-transmission sera which reacted with the peptide ([3]; Example 5): possessed, to varying degrees, antisyncytial activity
- Number of samples which bound the peptide and possessed anti-syncytial activity ([3]; sera which bound the peptide): all of them
- Neutralizing activity of antisera generated to the peptide (HIV-1; antisera (animals)): exhibit neutralizing activity
- Antisyncytial and neutralizing activities elicited by the peptide (HIV-1; in words, Example 5): can elicit both antisyncytial and neutralizing activities
